Consider five compounds from US6573284B1, “Method of treating melanoma” (priority 1996, dated 2003).

Data set [1] deals with human melanoma (C32, G361 and STMl1la) and nonmelanoma derived cell lines (Caki-2 and CHO). The format is cell-based.
For a further data set, the system named is tyrosinase. The data set can be described thus: Release of drug from prodrug upon treatment with tyrosinase (TLC, GCMS). Conditions: DMSO/phosphate buffer pH 7.2, 25° C., 1 hour; TLC and GCMS. The class given is biochemical.
For a further data set, the system named is mushroom tyrosinase. The data set can be described thus: Oximetry: oxidation of substrates by tyrosinase. The format is biochemical. The conditions noted are these: 100 μM substrate, 165 units of tyrosinase/ml, room temperature; compared with tyrosine.

“Also recorded” adds a separate entry of the source.

Regarding `NCCc1ccc(O)c(O)c1` [Compound B], the “relative toxicity (inverse of the IC50)” value in data set [1] is recorded as “essentially non-toxic”.
Take `O=C(NCCc1ccc(O)cc1)Oc1ccc(N(CCCl)CCCl)cc1` [Prodrug (1)]: the “release of mustard drug upon tyrosinase treatment” value in the data set on tyrosinase was “a component of identical Rf to the authentic mustard drug had been produced”.
For `COc1ccc(O)cc1` [4-Hydroxyanisole, 4-hydroxyanisole], the “oxidation by tyrosinase (utilization of oxygen with respect to time)” value with mushroom tyrosinase was “oxidised, but at a lower rate than tyrosine”.
Same read-out and setting: as for `CC(=O)N[C@@H](Cc1ccc(O)cc1)C(=O)O` [N-acetyl tyrosine], the entry is “oxidised, but at a lower rate than tyrosine”.
Usually melting point stands for the temperature, or range, at which the solid turns liquid. For `O=C(NCCc1ccc(O)c(O)c1)Oc1ccc(N(CCCl)CCCl)cc1` [Compound A, N-(N-bis-chlorethyl-4-amino-phenyloxycarbonyl)-3-hydroxy-tyramine], the melting point was 80 °C (dec.). In addition, the “oxidation by tyrosinase (utilization of oxygen with respect to time)” value with mushroom tyrosinase is recorded as “oxidised by tyrosinase, although the rate of the reaction was lower than for the normal substrate”. The “relative toxicity (inverse of the IC50)” value in data set [1] is on record as “relatively non-toxic; also recorded: increasing toxicity with tyrosinase activity”.
